US12564641B2 (EISAI R&D MANAGEMENT CO., LTD., priority 2019, dated 2026)
Where two headings read alike, the source gives them in different places.

Key:
A431 cells = assay: In vitro cytotoxicity analysis (Crystal Violet), A431; conditions: Homo sapiens, A-431, read-out: Cell based Cytotoxicity assay, EC50 (nM) A431-6 hr; treated with ADC for 6 hours then washed off
Protocol: (§1) Plates were read at 570 nm. Data was analyzed using GraphPad Prism 6.
All ADCs were purified and characterized using SEC-HPLC for aggregation analysis, HIC-HPLC for DAR analysis, and cell-based assay with A431-A3 (MSLN^hi), A431 (MSLN^lo), and OVCAR3 (MSLN^hi) cell lines.

H226 cells = assay: In vitro cytotoxicity analysis (Crystal Violet), H226; assay type: cell-based; conditions: Homo sapiens
Protocol: as §1

[1] = system: human mesothelioma HAY xenograft
Protocol: Female CD-1 IGS mice (Charles River, 7-9 weeks old) were used for the maximum tolerated dose (MTD) study, female NOD.CB17-SCID mice (Jackson Laboratory) were used for the NCI-H2110 and HAY xenograft studies, and female NCr nude mice (Taconic, 5 weeks old) were used for the NCI-N87 xenograft studies. Upon arrival, animals were acclimated for 5-7 days prior to inoculation.
Cryopreserved NCI-H2110, NCI-N87, or HAY cells from frozen stocks were cultured in medium containing necessary supplements.
Mice were injected subcutaneously with 100 μL/mouse of cell mixture and monitored for body weight and tumor growth.
Mice were randomized to five mice per group once tumor implants reached an average volume of 100 mm^3. Treatment was given intravenously at a volume of 200 μL. Terminal body weight was measured and recorded at the end of each study.
Comparison of tumor growth within each experimental group was also performed using the same statistical analysis.

human NSCLC PDX LC-F-25 = assay: Human NSCLC PDX model LC-F-25; assay type: in vivo, mouse
Protocol: Statistical analysis: Statistical analysis was performed for each measurement by a Mann-Whitney non-parametric comparison test. Each treated group was compared with the control group.

human NSCLC PDX LXFA-586 = assay: Human NSCLC PDX model LXFA-586
Description: Animals: Female NMRI nu/nu mice, 4 to 6 weeks of age.
Xenotransplantation: LXFA-586 established growing tumor (T2N1M0) from a primary non-small cell lung adenocarcinoma human patient.
Experimental procedure: Animals were monitored until the tumor implants reached the study volume criteria of 50-250 mm^3 (e.g., 80-200 mmi) in a sufficient number of animals. […] The process of the assignment to groups (enrollment, stratified randomization) may also be referred to as randomization. The day of randomization was designated as day 0 of the experiment.
Tumors were measured and mice were weighed twice a week during the experimental period. The first day of dosing was day 1, one day after randomization (day 0).

[2] = eribulin single dose of 0.1 mg/kg i.v.
[3] = eribulin single dose of 3.2 mg/kg i.v.

Question: How did the EC50 (A431 cells) turn out when `C=C1C[C@@H]2CC[C@@]34C[C@H]5O[C@H]6[C@@H](O3)[C@H]3O[C@H](CC[C@@H]3O[C@H]6[C@H]5O4)CC(=O)C[C@@H]3[C@@H](OC)[C@@H](C[C@H](O)CN)O[C@H]3C[C@H]3O[C@@H](CC[C@@H]1O2)C[C@@H](C)C3=C` [Eribulin, eribulin, reference compound] was run?
Answer: 2.86 nM

Question: And the EC50 (H226 cells; NCI-H226, 120 h, Table 18, 5 days, read-out: Cell-Based Cytotoxicity Assay, EC50 (nM) H226)?
Answer: 5.3 nM

Question: What about the EC50 (H226 cells; NCI-H226, Table 19, payloads, read-out: Cell-Based Cytotoxicity Assay EC50 (nM) H226) of the same molecule?
Answer: 5.3 nM

Question: What about the anti-tumor effect ([1]; eribulin alone 0.1 mg/kg (equivalent molar amount as in MORAb-109)) of the same molecule?
Answer: limited anti-tumor effects

Question: And the anti-tumor effect ([1]; eribulin alone at the MTD (3.2 mg/kg))?
Answer: limited anti-tumor effects

Question: What about the tolerability (human NSCLC PDX LC-F-25; [2]) of the same molecule?
Answer: well tolerated

Question: And the tumor growth inhibition (human NSCLC PDX LC-F-25; [2])?
Answer: did not induce statistically significant tumor growth inhibition

Question: And the tolerability / bodyweight (human NSCLC PDX LC-F-25; eribulin single dose of 3.2 mg/kg (mouse MTD) i.v., from 3 to 10 days after administration)?
Answer: slight and transient bodyweight loss

Question: And the partial tumor regressions (human NSCLC PDX LC-F-25; [3])?
Answer: 6 out of 8

Question: What about the tumor growth inhibition (human NSCLC PDX LC-F-25; [3]) of the same molecule?
Answer: statistically significant tumor growth inhibition

Question: What about the “minimum T/C” value (human NSCLC PDX LXFA-586; eribulin single dose of 3.2 mg/kg i.v., on day 21) of the same molecule?
Answer: 14.8%

Question: What about the tolerability / bodyweight (human NSCLC PDX LXFA-586; mouse, in vivo, iv, 3.2 mg/kg) of the same molecule?
Answer: slight and transient bodyweight loss
